Test results taken from US20250090540A1, “PI3K-ALPHA INHIBITORS AND METHODS OF USE THEREOF” (Relay Therapeutics, Inc., priority 2021, published 2025).

Target: H1047R PIK3CA enzyme (Homo sapiens, UniProt P42336, H1047R)
Assay: ADP-Glo Biochemical PIK3CA Kinase Assay
Details: ADP-Glo biochemical PIK3CA kinase assay

H1047R PIK3CA enzyme, sequence (P42336 whole entry H1047R): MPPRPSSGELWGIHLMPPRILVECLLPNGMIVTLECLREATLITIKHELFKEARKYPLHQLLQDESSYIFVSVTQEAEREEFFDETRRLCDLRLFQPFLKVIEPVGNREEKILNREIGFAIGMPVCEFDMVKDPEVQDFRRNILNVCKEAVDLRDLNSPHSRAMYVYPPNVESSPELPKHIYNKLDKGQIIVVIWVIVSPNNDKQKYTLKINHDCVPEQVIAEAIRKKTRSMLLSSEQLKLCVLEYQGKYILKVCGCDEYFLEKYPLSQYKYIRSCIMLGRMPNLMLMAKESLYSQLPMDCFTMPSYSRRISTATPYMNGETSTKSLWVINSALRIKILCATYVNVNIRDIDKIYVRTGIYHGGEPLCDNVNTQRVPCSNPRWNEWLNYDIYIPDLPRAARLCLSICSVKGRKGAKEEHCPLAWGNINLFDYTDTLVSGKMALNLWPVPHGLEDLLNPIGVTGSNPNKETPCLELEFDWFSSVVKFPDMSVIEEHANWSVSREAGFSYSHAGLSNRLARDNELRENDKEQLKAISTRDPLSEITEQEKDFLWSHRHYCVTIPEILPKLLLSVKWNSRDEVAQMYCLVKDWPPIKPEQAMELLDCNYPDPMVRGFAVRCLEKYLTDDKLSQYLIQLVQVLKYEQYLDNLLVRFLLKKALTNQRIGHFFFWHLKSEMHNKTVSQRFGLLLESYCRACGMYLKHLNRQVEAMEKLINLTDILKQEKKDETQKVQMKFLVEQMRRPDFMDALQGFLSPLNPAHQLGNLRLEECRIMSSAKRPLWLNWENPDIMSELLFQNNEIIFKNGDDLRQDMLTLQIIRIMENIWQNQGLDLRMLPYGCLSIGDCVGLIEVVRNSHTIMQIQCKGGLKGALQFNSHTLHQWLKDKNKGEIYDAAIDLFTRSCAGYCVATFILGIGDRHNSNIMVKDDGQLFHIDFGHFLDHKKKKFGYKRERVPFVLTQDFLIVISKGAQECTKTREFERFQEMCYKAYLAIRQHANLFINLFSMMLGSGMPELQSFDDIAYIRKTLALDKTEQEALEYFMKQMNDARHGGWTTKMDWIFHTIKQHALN
H1047R PIK3CA enzyme, sequence (P27986 whole entry partner): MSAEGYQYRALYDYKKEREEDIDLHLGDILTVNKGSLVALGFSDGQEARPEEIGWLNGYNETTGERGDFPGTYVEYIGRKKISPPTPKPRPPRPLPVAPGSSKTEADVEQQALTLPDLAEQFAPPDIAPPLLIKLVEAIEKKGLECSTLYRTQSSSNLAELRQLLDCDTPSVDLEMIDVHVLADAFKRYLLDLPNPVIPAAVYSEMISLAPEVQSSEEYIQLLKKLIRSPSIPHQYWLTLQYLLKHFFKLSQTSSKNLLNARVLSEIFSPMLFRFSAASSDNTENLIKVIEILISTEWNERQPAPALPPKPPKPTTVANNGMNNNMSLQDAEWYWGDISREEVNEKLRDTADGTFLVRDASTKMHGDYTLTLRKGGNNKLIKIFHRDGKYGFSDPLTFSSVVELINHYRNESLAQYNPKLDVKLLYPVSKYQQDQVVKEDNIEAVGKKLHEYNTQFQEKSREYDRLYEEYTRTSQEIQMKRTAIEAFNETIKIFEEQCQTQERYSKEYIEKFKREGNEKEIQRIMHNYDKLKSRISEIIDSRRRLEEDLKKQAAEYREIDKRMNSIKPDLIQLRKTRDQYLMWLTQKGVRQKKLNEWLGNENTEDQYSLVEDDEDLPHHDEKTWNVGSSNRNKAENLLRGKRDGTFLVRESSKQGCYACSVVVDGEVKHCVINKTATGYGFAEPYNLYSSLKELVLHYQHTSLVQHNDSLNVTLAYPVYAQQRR

Row | IC50 [µM] | SMILES
1 | 10 to 100 | CNC(=O)c1cnc(Nc2ccccc2C)c(NC(=O)c2n[nH]c3ccc(C#N)cc23)c1 [I-455]
2 | 1 to 10 | CNC(=O)c1cnc(Nc2ccccc2C)c(NC(=O)c2cc3cccc(Cl)c3s2)c1 [I-456]
3 | 10 to 100 | CNC(=O)c1cnc(Nc2ccccc2C)c(NC(=O)CCc2c[nH]c3ccc(F)cc23)c1 [I-459]
4 | 10 to 100 | CNC(=O)c1cnc(Nc2ccccc2C)c(NC(=O)c2cc(Br)cc3ccccc23)c1 [I-461]
5 | 10 to 100 | CNC(=O)c1cnc(Nc2ccccc2C)c(NC(=O)c2cc3c(Cl)cccn3c2)c1 [I-462]
6 | 10 to 100 | CNC(=O)c1cnc(Nc2ccccc2C)c(NC(=O)c2onc3c2CCCC3)c1 [I-463]
7 | 10 to 100 | CNC(=O)c1cnc(Nc2ccccc2C)c(NC(=O)C2CCCC3CCCCC32)c1 (centres unmarked) [I-464]
8 | 10 to 100 | CCc1c(Cl)c(C(=O)Nc2cc(C(=O)NC)cnc2Nc2ccccc2C)nn1C [I-465]
9 | 10 to 100 | CNC(=O)c1cnc(Nc2ccccc2C)c(NC(=O)c2cccc(C#N)c2Cl)c1 [I-466]
10 | 10 to 100 | CNC(=O)c1cnc(Nc2ccccc2C)c(NC(=O)Cc2c[nH]c3cc(F)c(F)cc23)c1 [I-467]
11 | 10 to 100 | CNC(=O)c1cnc(Nc2ccccc2C)c(NC(=O)c2cnc3ccc(F)cn23)c1 [I-469]
12 | 10 to 100 | CNC(=O)c1cnc(Nc2ccccc2C)c(NC(=O)c2cc(Cl)cc3cccnc23)c1 [I-470]
13 | 10 to 100 | CNC(=O)c1cnc(Nc2ccccc2C)c(NC(=O)C(C)Cc2ccc(F)cc2)c1 (centres unmarked) [I-471]
14 | 10 to 100 | CNC(=O)c1cnc(Nc2ccccc2C)c(NC(=O)c2nn(C)c3c2CCC3)c1 [I-472]
15 | 10 to 100 | CNC(=O)c1cnc(Nc2ccccc2C)c(NC(=O)c2cn[nH]c2-c2ccc(F)cc2)c1 [I-473]
16 | 10 to 100 | CNC(=O)c1cnc(Nc2ccccc2C)c(NC(=O)c2cccc3c2OC(C)(C)CC3)c1 [I-474]
17 | 1 to 10 | CNC(=O)c1cnc(Nc2ccccc2C)c(NC(=O)C2(c3cccc(F)c3)CC2)c1 [I-475]

Row | IC50 [µM] | SMILES
18 | 10 to 100 | CNC(=O)c1cnc(Nc2ccccc2C)c(NC(=O)c2cc(Br)cc(C(C)C)c2)c1 [I-476]
19 | 10 to 100 | CNC(=O)c1cnc(Nc2ccccc2C)c(NC(=O)C2CCc3cccc(Cl)c32)c1 (centres unmarked) [I-477]
20 | 10 to 100 | CNC(=O)c1cnc(Nc2ccccc2C)c(NC(=O)c2cc(C)cc(OC)c2)c1 [I-478]
21 | 10 to 100 | CNC(=O)c1cnc(Nc2ccccc2C)c(NC(=O)c2ccc(F)c(C)c2Cl)c1 [I-479]
22 | 10 to 100 | CNC(=O)c1cnc(Nc2ccccc2C)c(NC(=O)c2cn(C)c3ncccc23)c1 [I-480]
23 | 10 to 100 | CNC(=O)c1cnc(Nc2ccccc2C)c(NC(=O)C2(c3ccc(F)c(F)c3)CC2)c1 [I-481]
24 | 10 to 100 | CNC(=O)c1cnc(Nc2ccccc2C)c(NC(=O)CC(C)Oc2ccccc2)c1 (centres unmarked) [I-482]
25 | 10 to 100 | CNC(=O)c1cnc(Nc2ccccc2C)c(NC(=O)c2coc3cccc(Br)c23)c1 [I-483]
26 | 10 to 100 | CNC(=O)c1cnc(Nc2ccccc2C)c(NC(=O)c2ccc(C(F)F)cn2)c1 [I-484]
27 | 10 to 100 | CNC(=O)c1cnc(Nc2ccccc2C)c(NC(=O)c2cc3c(Br)cccc3[nH]2)c1 [I-485]
28 | 10 to 100 | Cc1ccccc1Nc1ncc(C(=O)NC2CCOc3ccccc32)cc1NC(=O)c1csc2ccccc12 (centres unmarked) [I-487]
29 | 10 to 100 | CNC(=O)c1cnc(Nc2ccccc2C)c(NC(=O)c2cc3cc(F)ccc3o2)c1 [I-488]
30 | 1 to 10 | CNC(=O)c1cnc(Nc2ccccc2C)c(NC(=O)c2cc(C)c(F)c(C)c2)c1 [I-489]
31 | 10 to 100 | CNC(=O)c1cnc(Nc2ccccc2C)c(NC(=O)c2ccc3occ(Cl)c3c2)c1 [I-490]
32 | 10 to 100 | CNC(=O)c1cnc(Nc2ccccc2C)c(NC(=O)c2cc(C)cc(F)c2F)c1 [I-491]
33 | 10 to 100 | CNC(=O)c1cnc(Nc2ccccc2C)c(NC(=O)c2ncsc2C(F)(F)F)c1 [I-492]
34 | 10 to 100 | CNC(=O)c1cnc(Nc2ccccc2C)c(NC(=O)C2CCC(F)(F)CC2)c1 [I-493]

Row | SMILES | IC50 [µM]
35 | CNC(=O)c1cnc(Nc2ccccc2C)c(NC(=O)c2nn(C(C)C)c3ccccc23)c1 [I-457] | 10 to 100
